Read-outs that look alike come from different tables or passages of the source.
Assays:
GAK = molecular target: T1, GAK (Homo sapiens, UniProt O14976); experiment: TR-FRET binding displacement assay
T1 sequence (O14976 12-347 limits assumed): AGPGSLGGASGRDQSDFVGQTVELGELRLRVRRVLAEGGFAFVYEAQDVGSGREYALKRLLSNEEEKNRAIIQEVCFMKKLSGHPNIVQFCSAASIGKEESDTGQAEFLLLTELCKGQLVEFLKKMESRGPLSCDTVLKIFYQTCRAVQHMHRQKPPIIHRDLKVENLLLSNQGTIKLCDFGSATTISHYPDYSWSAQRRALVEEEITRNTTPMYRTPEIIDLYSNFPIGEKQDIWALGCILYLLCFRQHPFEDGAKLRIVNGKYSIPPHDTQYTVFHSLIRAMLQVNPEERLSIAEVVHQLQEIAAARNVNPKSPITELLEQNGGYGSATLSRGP

SLK [1] = molecular target: T2, SLK (Homo sapiens, UniProt Q9H2G2); experiment: TR-FRET binding displacement assay
T2 sequence (Q9H2G2 34-292): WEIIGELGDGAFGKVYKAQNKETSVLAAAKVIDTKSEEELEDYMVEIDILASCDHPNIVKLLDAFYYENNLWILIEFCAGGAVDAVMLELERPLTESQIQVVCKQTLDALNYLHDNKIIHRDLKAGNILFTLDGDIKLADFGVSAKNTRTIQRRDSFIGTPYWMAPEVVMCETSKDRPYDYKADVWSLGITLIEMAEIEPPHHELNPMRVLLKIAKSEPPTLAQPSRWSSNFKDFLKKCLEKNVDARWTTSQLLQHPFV

STK10 [2] = molecular target: T3, STK10 (Homo sapiens, UniProt O94804); experiment: TR-FRET binding displacement assay
T3 sequence (O94804 36-294 limits assumed): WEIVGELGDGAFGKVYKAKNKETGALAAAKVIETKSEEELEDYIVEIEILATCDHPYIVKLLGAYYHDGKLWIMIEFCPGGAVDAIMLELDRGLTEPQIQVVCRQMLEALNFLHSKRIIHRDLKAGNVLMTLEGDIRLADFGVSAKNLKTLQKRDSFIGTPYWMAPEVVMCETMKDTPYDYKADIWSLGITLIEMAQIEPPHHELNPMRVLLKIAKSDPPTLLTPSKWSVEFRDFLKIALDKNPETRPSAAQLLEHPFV

[3] = molecular target: T4, full length GAK protein N-terminally fused with NanoLuc luciferase (Homo sapiens, UniProt O14976); experiment: nanoBRET cellular target engagement; format: cell-based
T4 sequence (O14976 2-1311): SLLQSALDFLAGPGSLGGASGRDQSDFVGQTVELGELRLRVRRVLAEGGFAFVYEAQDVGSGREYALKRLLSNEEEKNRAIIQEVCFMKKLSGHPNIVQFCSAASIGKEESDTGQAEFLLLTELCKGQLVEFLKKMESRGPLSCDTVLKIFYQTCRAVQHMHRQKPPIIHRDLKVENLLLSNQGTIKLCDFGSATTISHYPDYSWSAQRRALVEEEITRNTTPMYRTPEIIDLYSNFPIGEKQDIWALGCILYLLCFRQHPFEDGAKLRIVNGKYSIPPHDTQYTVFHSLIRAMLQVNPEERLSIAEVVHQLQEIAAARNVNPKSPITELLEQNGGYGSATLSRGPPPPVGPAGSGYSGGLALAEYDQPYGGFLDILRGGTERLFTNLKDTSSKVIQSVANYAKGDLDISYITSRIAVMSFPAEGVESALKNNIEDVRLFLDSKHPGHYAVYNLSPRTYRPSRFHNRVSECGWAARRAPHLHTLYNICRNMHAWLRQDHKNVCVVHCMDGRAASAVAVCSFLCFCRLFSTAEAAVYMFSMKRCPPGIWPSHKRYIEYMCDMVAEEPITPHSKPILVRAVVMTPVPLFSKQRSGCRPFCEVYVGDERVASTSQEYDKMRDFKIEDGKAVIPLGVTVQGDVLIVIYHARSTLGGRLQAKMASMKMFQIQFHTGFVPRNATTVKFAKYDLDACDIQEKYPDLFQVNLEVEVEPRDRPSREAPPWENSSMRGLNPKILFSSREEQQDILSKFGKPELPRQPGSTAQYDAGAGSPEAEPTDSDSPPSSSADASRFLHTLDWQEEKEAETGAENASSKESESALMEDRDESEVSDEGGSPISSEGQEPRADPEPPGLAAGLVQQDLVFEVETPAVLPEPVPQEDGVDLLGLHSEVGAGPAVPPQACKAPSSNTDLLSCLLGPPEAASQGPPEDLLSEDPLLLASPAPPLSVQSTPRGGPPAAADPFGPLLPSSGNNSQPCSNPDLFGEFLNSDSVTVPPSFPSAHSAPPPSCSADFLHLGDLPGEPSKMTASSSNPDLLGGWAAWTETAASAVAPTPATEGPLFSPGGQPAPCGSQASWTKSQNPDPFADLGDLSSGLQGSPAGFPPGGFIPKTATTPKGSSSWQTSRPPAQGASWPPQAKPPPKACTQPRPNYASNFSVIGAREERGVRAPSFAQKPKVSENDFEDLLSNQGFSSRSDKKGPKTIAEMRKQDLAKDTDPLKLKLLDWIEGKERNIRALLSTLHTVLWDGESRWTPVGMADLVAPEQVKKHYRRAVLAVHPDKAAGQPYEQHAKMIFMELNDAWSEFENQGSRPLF

SLK [4] = molecular target: T2, SLK; experiment: biochemical
[5] = molecular target: T4, full length GAK protein N-terminally fused with NanoLuc luciferase; experiment: cell-based; design: species or system HEK293T
STK10 [6] = molecular target: T3, STK10; experiment: biochemical
[7] = molecular target: T4, full length GAK protein N-terminally fused with NanoLuc luciferase; experiment: cell-based; design: species or system HEK293T; remark: listed apart in the source
[8] = ATP site tracer displacement, 16-point dose response
[9] = HEK293T cells, tracer displacement, n=[…] mean

Row | SMILES | Ki (SLK [1]) [µM] | Ki (STK10 [2]) [µM] | IC50 [7] [µM] | also measured
1 | COc1cc(Nc2ccnc3cc(Br)ccc23)cc(OC)c1OC [compound 18, 18] | 2.7 | 0.38 |  | Ki (GAK): 0.0049 µM; IC50 [3]: 0.27 µM
2 | COc1ccc2nccc(Nc3cc(OC)c(OC)c(OC)c3)c2c1 [compound 14, 14] | > 55 | 12 |  | Ki (GAK; [8]): 0.013 µM; IC50 [3]: 0.36 µM
3 | C#Cc1cccc(Nc2ncnc3cc(Cl)ccc23)c1 [compound 63, 63] |  |  |  | Ki (SLK [4]): 0.36 µM; IC50 [5]: > 5 µM; Ki (STK10 [6]): 0.44 µM
4 | COc1cc(Nc2ncnc3cc(Cl)ccc23)cc(OC)c1OC [compound 32, 32] |  |  | 3.2 | 
5 | COc1cc2ncnc(Nc3ccc(F)c(Cl)c3)c2cc1OCCCN1CCOCC1 [Gefitinib] |  | 0.34 |  | 
6 | COc1cc(Nc2ccnc3cc(C(F)(F)F)ccc23)cc(OC)c1OC [compound 20, 20] | 3.2 | 0.37 |  | Ki (GAK; [8]): 0.0062 µM; IC50 [3, 9]: 0.52 µM
7 | COc1cc(Nc2ncnc3ccc(C#N)cc23)cc(OC)c1OC [compound 37, 37] |  |  | > 5 | 
8 | COc1cc(Nc2ncnc3cc(Br)ccc23)cc(OC)c1OC [compound 33, 33] |  |  | 4.2 | 
9 | COc1cc(Nc2ccnc3ccc(C(F)(F)F)cc23)cc(OC)c1OC [compound 12, 12] | 33 | 4.6 |  | 
10 | C#Cc1cccc(Nc2ncnc3cc4c(cc23)OCCO4)c1 [compound 74, 74] |  |  |  | Ki (SLK [4]): 3.6 µM; IC50 [5]: 3.2 µM; Ki (STK10 [6]): 1.7 µM
11 | COc1cc(Nc2ccnc3cc(Cl)ccc23)cc(OC)c1OC [compound 17, 17] | 2.1 | 0.21 |  | Ki (GAK): 0.0013 µM; IC50 [3]: 0.25 µM
12 | COc1cc(Nc2ncnc3cc(C(F)(F)F)ccc23)cc(OC)c1OC [compound 35, 35] |  |  | > 5 | 
13 | COc1cc(Nc2ccnc3ccc(Br)cc23)cc(OC)c1OC [compound 2, SGC-GAK-1] | 34 | 4.6 |  | 
14 | COc1cc(Nc2ncnc3ccc(C(F)(F)F)cc23)cc(OC)c1OC [compound 30, 30] |  |  | 4.5 | 
15 | COc1cc(Nc2ccnc3ccc(S(C)(=O)=O)cc23)cc(OC)c1OC [compound 15, 15] | 23 | 2.4 |  | 
16 | COc1cc(Nc2ncnc3cc(C#N)ccc23)cc(OC)c1OC [compound 36, 4-((3,4,5-trimethoxyphenyl)amino)quinazoline-7-carbonitrile] |  |  | > 5 | Ki (GAK): 0.21 µM
17 | COc1cc(Nc2ccnc3cc(F)ccc23)cc(OC)c1OC [compound 16, 16] | 17 | 1.6 |  | 
18 | C#Cc1cccc(Nc2ccnc3cc(OCCOC)c(OCCOC)cc23)c1 [compound 1, erlotinib quinoline] | 1.2 | 0.72 |  | Ki (GAK): 0.1 µM; IC50 [3, 9]: 4.2 µM
19 | COc1cc(Nc2ncnc3ccc(S(C)(=O)=O)cc23)cc(OC)c1OC [compound 38, 38] |  |  | > 5 | 
20 | COc1cc(Nc2ncnc3ccc(Br)cc23)cc(OC)c1OC [compound 28, 28] |  |  | 1.8 | 
21 | COCCOc1cc2ncnc(Nc3cc(OC)c(OC)c(OC)c3)c2cc1OCCOC [compound 42, 42] |  |  | 3 | 
22 | COc1cc(Nc2ccnc3ccc(Cl)cc23)cc(OC)c1OC [compound 10, 10] | 11 | 1 |  | Ki (GAK): 0.00068 µM; IC50 [3]: 0.21 µM
23 | COc1cc(Nc2ccnc3ccc(F)cc23)cc(OC)c1OC [compound 8, 8] | 5.1 | 45.9 |  | 

Row | SMILES | Ki (SLK [1]) [µM] | Ki (STK10 [2]) [µM] | IC50 [7] [µM] | also measured
24 | COc1cc(Nc2ncnc3ccccc23)cc(OC)c1OC [compound 23, 23] |  |  | 4.6 | 
25 | COc1cc(Nc2ccnc3ccc(C#N)cc23)cc(OC)c1OC [compound 13, 13] | 19 | 1.7 |  | Ki (GAK; [8]): 0.0015 µM; IC50 [3]: 0.36 µM
26 | C#Cc1cccc(Nc2ncnc3cc(OC)c(OC)cc23)c1 [compound 71] |  |  |  | IC50 [5]: 0.079 µM
27 | COc1cc(Nc2ncnc3cc(I)ccc23)cc(OC)c1OC [compound 34, 34] |  |  | 2.4 | 
28 | COc1cc(Nc2ccnc3ccc(I)cc23)cc(OC)c1OC [compound 11, 11] | 5.8 | 24.3 |  | Ki (GAK): 0.0038 µM; IC50 [3]: 0.11 µM
29 | COc1cc(Nc2ccnc3cc(I)ccc23)cc(OC)c1OC [compound 19, 19] | 1.7 | 0.21 |  | Ki (GAK): 0.0044 µM; IC50 [3]: 0.074 µM
30 | COc1cc2ncnc(Nc3ccc(F)c(Cl)c3)c2cc1NC(=O)/C=C/CN1CCCCC1 [Dacomitinib] | 1.1 | 0.59 |  | Ki (GAK): 0.007 µM; IC50 [3]: 0.049 µM
31 | COc1cc(Nc2ncnc3ccc(F)cc23)cc(OC)c1OC [compound 25, 25] |  |  | 3.6 | 
32 | COc1cc(Nc2ccnc3ccccc23)cc(OC)c1OC [compound 7, 7] | > 55 | 27.8 |  | Ki (GAK; [8]): 0.04 µM; IC50 [3]: 0.73 µM
33 | COc1cc(Nc2ncnc3ccc(Cl)cc23)cc(OC)c1OC [compound 27, 27] |  |  | 2.4 | 
34 | CCOc1cc2ncc(C#N)c(Nc3ccc(OCc4ccccn4)c(Cl)c3)c2cc1NC(=O)/C=C/CN(C)C [Neratinib] |  |  |  | Ki (GAK): 0.29 µM; IC50 [3]: 2.3 µM
35 | COc1cc(Nc2ccnc3cc(F)c(F)cc23)cc(OC)c1OC [compound 9, 6,7-difluoro-N-(3,4,5-trimethoxyphenyl)quinolin-4-amine] | 26 | 2.7 |  | Ki (GAK): 0.0069 µM; IC50 [3]: 0.14 µM
36 | COc1cc(Nc2ncnc3cc(F)c(F)cc23)cc(OC)c1OC [compound 26, 26] |  |  | > 5 | 
37 | C#Cc1cccc(Nc2c(C#N)cnc3cc(OC)c(OC)cc23)c1 [compound 82, 82] |  |  |  | Ki (GAK; [8]): 0.00032 µM; IC50 ([3]; HEK293T cells, tracer displacement): 0.04 µM
38 | C#Cc1cccc(Nc2ncnc3cc(OC)c(OC)cc23)c1 [compound 71, 71] | 0.14 | 0.12 |  | Ki (GAK): 0.001 µM
39 | COc1ccc2ncnc(Nc3cc(OC)c(OC)c(OC)c3)c2c1 [compound 39, 39] |  |  | 3.4 | 
40 | CCOc1cc2ncc(C#N)c(Nc3ccc(F)c(Cl)c3)c2cc1NC(=O)/C=C/CN(C)C [Pelitinib] | 0.28 |  |  | IC50 [3]: 0.012 µM
41 | COc1cc(Nc2ncnc3ccc(I)cc23)cc(OC)c1OC [compound 29, 29] |  |  | 0.89 | 
42 | COc1ccc2c(Nc3cc(OC)c(OC)c(OC)c3)ncnc2c1 [compound 41, 41] |  |  | 1.6 | 
43 | C#Cc1cccc(Nc2ncnc3ccc(S(C)(=O)=O)cc23)c1 [compound 69, N-(3-ethynylphenyl)-6-(methylsulfonyl)quinazolin-4-amine] |  |  |  | Ki (GAK): 0.42 µM; Ki (SLK [4]): 1.3 µM; IC50 [5]: > 5 µM; Ki (STK10 [6]): 1.3 µM
44 | COc1cc(Nc2ncnc3ccc(C)cc23)cc(OC)c1OC [compound 24, 24] |  |  | 2.1 | 
45 | COc1cc(Nc2ncnc3cc(F)ccc23)cc(OC)c1OC [compound 31, 31] |  |  | > 5 | 
46 | COc1cc2nccc(Nc3cc(OC)c(OC)c(OC)c3)c2cc1OC [compound 3, 3] | 7.1 | 1.1 |  | IC50 [3]: 0.026 µM

From paper doi:10.1101/757047v1 (biorxiv, 2019)
